{
  "source": "paper PMC11842588",
  "about": "“A first-in-class selective inhibitor of ERK1/2 and ERK5 overcomes drug resistance with a single-molecule strategy” (Signal Transduction and Targeted Therapy, 2025)",
  "assay_in_all_cases": "Kinase profiling",
  "assay_type_in_all_cases": "biochemical",
  "key": {"NEK5(h)": {"target": "T1, NEK5(h) (Homo sapiens, UniProt Q6P3R8)", "T1 construct": "purchased Eurofins Cerep SA (KinaseProfiler)", "T1 sequence (Q6P3R8 whole entry)": "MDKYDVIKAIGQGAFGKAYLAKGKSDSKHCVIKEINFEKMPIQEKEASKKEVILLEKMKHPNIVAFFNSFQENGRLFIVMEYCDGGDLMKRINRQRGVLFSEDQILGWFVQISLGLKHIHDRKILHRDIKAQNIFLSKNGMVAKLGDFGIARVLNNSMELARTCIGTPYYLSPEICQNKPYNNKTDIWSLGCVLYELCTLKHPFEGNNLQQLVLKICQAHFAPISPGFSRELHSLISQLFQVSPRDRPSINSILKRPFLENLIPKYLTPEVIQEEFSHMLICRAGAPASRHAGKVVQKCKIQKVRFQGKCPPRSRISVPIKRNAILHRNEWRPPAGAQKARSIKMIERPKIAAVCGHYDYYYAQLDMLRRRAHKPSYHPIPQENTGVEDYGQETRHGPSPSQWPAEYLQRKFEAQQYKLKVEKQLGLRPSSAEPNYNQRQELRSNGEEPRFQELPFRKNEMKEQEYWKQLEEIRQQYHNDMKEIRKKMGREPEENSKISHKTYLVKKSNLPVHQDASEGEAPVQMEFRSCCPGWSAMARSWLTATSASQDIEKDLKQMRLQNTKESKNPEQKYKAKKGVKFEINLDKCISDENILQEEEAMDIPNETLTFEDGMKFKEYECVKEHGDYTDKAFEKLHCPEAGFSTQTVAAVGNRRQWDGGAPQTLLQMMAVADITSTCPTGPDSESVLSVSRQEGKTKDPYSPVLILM", "protocol": "(§1) 380 kinases inhibitory activities of SKLB-D18 were conducted by Eurofins Cerep SA. The result was illustrated by kinase tree (http://www.kinhub.org/kinmap/)."}, "Pim-1(h)": {"target": "T2, Pim-1(h) (Homo sapiens, UniProt P11309)", "T2 construct": "purchased Eurofins Cerep SA (KinaseProfiler)", "protocol": "as §1"}, "DYRK1A(h)": {"target": "T3, DYRK1A(h) (Homo sapiens, UniProt Q13627)", "T3 construct": "purchased Eurofins Cerep SA (KinaseProfiler)", "protocol": "as §1"}, "TGFBR1(h)": {"target": "T4, TGFBR1(h) (Homo sapiens, UniProt P36897)", "T4 construct": "purchased Eurofins Cerep SA (KinaseProfiler)", "protocol": "as §1"}, "MARK1(h)": {"target": "T5, MARK1(h) (Homo sapiens, UniProt Q9P0L2)", "T5 construct": "purchased Eurofins Cerep SA (KinaseProfiler)", "T5 sequence (Q9P0L2 whole entry)": "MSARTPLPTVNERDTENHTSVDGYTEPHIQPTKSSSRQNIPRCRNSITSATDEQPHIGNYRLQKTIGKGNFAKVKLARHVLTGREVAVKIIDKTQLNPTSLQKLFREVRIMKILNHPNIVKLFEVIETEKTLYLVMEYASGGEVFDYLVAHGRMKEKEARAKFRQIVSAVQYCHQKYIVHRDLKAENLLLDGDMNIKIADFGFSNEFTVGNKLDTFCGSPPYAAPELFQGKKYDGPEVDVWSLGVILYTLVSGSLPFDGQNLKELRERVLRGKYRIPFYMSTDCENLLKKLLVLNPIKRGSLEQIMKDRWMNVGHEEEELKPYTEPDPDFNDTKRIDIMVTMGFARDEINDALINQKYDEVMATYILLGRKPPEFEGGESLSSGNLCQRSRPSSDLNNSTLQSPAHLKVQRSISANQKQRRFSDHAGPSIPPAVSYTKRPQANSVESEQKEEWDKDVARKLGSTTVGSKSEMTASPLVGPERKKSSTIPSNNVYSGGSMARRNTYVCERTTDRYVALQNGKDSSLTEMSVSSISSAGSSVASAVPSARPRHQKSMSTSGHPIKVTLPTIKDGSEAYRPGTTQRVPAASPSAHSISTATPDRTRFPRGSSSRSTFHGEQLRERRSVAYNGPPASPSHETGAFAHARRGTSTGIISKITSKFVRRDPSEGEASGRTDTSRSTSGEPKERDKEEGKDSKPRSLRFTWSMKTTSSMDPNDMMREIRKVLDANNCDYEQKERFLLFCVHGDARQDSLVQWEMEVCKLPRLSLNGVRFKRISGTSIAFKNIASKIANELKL", "protocol": "as §1"}, "HIPK3(h)": {"target": "T6, HIPK3(h) (Homo sapiens, UniProt Q9H422)", "T6 construct": "purchased Eurofins Cerep SA (KinaseProfiler)", "protocol": "as §1"}, "Mer(h)": {"target": "T7, Mer(h) (Homo sapiens, UniProt Q12866)", "T7 construct": "purchased Eurofins Cerep SA (KinaseProfiler)", "protocol": "as §1"}, "Fes(h)": {"target": "T8, Fes(h) (Homo sapiens, UniProt P07332)", "T8 construct": "purchased Eurofins Cerep SA (KinaseProfiler)", "protocol": "as §1"}, "BrSK2(h)": {"target": "T9, BrSK2(h) (Homo sapiens, UniProt Q8IWQ3)", "T9 construct": "purchased Eurofins Cerep SA (KinaseProfiler)", "protocol": "as §1"}, "Fer(h)": {"target": "T10, Fer(h) (Homo sapiens, UniProt P16591)", "T10 construct": "purchased Eurofins Cerep SA (KinaseProfiler)", "protocol": "as §1"}, "ULK3(h)": {"target": "T11, ULK3(h) (Homo sapiens, UniProt Q6PHR2)", "T11 construct": "purchased Eurofins Cerep SA (KinaseProfiler)", "protocol": "as §1"}, "Pyk2(h)": {"target": "T12, Pyk2(h) (Homo sapiens, UniProt Q14289)", "T12 construct": "purchased Eurofins Cerep SA (KinaseProfiler)", "protocol": "as §1"}, "PKD3(h)": {"target": "T13, PKD3(h) (Homo sapiens, UniProt O94806)", "T13 construct": "purchased Eurofins Cerep SA (KinaseProfiler)", "protocol": "as §1"}, "CK1δ(h)": {"target": "T14, CK1δ(h) (Homo sapiens, UniProt P48730)", "T14 construct": "purchased Eurofins Cerep SA (KinaseProfiler)", "protocol": "as §1"}, "ZAK(h)": {"target": "T15, ZAK(h) (Homo sapiens, UniProt Q9NYL2)", "T15 construct": "purchased Eurofins Cerep SA (KinaseProfiler)", "protocol": "as §1"}, "MST3(h)": {"target": "T16, MST3(h) (Homo sapiens, UniProt Q9Y6E0)", "T16 construct": "purchased Eurofins Cerep SA (KinaseProfiler)", "protocol": "as §1"}, "TTBK2(h)": {"target": "T17, TTBK2(h) (Homo sapiens, UniProt Q6IQ55)", "T17 construct": "purchased Eurofins Cerep SA (KinaseProfiler)", "T17 sequence (Q6IQ55 whole entry)": "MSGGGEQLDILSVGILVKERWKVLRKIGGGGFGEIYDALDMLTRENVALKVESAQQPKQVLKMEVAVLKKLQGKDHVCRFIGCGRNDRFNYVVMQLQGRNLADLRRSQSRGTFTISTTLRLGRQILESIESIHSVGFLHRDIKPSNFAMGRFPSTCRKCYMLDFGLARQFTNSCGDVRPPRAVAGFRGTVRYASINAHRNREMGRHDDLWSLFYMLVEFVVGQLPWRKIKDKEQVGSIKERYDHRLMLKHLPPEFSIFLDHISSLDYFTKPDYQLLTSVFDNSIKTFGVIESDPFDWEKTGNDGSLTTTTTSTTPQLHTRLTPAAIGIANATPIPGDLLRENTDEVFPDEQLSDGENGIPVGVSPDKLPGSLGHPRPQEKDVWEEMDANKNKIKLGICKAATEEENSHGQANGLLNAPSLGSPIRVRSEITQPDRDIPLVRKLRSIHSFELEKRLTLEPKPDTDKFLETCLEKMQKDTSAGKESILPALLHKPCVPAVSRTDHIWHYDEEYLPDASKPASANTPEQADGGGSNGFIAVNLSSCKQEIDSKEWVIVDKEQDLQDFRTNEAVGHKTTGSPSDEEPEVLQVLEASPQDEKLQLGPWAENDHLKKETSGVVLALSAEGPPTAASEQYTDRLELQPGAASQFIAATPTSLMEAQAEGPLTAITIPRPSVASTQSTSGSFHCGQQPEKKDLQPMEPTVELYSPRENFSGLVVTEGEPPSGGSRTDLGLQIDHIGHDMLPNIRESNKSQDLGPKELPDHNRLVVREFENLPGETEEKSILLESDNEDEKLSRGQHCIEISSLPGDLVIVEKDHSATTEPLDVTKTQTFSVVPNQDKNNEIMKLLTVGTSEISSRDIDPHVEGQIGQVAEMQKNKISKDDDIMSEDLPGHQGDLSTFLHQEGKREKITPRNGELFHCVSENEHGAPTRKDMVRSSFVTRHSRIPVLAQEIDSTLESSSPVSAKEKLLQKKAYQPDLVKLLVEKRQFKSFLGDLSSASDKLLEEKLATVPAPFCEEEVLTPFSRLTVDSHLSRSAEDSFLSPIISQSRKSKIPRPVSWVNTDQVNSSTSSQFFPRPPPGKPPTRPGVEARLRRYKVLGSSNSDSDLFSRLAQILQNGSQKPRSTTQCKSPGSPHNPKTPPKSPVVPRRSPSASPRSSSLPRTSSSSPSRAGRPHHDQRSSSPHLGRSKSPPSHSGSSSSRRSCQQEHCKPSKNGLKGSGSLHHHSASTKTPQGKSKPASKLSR", "protocol": "as §1"}, "GAK(h)": {"target": "T18, GAK(h) (Homo sapiens, UniProt O14976)", "T18 construct": "purchased Eurofins Cerep SA (KinaseProfiler)", "protocol": "as §1"}, "CSK(h)": {"target": "T19, CSK(h) (Homo sapiens, UniProt P41240)", "T19 construct": "purchased Eurofins Cerep SA (KinaseProfiler)", "protocol": "as §1"}, "Ros(h)": {"target": "T20, Ros(h) (Homo sapiens, UniProt P08922)", "T20 construct": "purchased Eurofins Cerep SA (KinaseProfiler)", "protocol": "as §1"}, "Pim-2(h)": {"target": "T21, Pim-2(h) (Homo sapiens, UniProt Q9P1W9)", "T21 construct": "purchased Eurofins Cerep SA (KinaseProfiler)", "protocol": "as §1"}, "p70S6K(h)": {"target": "T22, p70S6K(h) (Homo sapiens, UniProt P23443)", "T22 construct": "purchased Eurofins Cerep SA (KinaseProfiler)", "protocol": "as §1"}, "TTK(h)": {"target": "T23, TTK(h) (Homo sapiens, UniProt P33981)", "T23 construct": "purchased Eurofins Cerep SA (KinaseProfiler)", "protocol": "as §1"}, "MYO3B(h)": {"target": "T24, MYO3B(h) (Homo sapiens, UniProt Q8WXR4)", "T24 construct": "purchased Eurofins Cerep SA (KinaseProfiler)", "protocol": "as §1"}, "EphA5(h)": {"target": "T25, EphA5(h) (Homo sapiens, UniProt P54756)", "T25 construct": "purchased Eurofins Cerep SA (KinaseProfiler)", "protocol": "as §1"}, "MST2(h)": {"target": "T26, MST2(h) (Homo sapiens, UniProt Q13188)", "T26 construct": "purchased Eurofins Cerep SA (KinaseProfiler)", "protocol": "as §1"}, "MLK2(h)": {"target": "T27, MLK2(h) (Homo sapiens, UniProt Q02779)", "T27 construct": "purchased Eurofins Cerep SA (KinaseProfiler)", "T27 sequence (Q02779 whole entry)": "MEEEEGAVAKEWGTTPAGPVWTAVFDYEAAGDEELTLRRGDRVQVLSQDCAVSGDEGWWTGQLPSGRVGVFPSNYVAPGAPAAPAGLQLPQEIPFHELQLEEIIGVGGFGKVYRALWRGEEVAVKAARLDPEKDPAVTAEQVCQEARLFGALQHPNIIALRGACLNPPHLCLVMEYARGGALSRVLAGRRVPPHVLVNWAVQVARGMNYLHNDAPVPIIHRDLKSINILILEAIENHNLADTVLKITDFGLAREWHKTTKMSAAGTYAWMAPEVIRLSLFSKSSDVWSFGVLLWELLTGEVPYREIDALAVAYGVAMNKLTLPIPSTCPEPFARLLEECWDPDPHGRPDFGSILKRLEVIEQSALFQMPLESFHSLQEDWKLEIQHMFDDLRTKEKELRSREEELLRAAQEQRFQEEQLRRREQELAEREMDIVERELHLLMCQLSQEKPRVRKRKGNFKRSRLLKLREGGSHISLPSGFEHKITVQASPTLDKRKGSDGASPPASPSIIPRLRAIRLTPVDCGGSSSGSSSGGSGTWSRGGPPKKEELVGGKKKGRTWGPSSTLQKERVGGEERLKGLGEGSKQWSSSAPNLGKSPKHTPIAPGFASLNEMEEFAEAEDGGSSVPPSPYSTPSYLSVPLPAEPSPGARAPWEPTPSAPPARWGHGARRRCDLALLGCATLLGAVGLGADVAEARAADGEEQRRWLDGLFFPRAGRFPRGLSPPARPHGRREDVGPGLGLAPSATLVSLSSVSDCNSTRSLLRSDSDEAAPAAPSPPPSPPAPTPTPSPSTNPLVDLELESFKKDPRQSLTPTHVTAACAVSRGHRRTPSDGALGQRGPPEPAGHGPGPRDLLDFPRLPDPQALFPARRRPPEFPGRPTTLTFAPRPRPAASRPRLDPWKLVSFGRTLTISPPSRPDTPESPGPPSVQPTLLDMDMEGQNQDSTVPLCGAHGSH", "protocol": "as §1"}, "MuSK(h)": {"target": "T28, MuSK(h) (Homo sapiens, UniProt O15146)", "T28 construct": "purchased Eurofins Cerep SA (KinaseProfiler)", "protocol": "as §1"}, "NUAK2(h)": {"target": "T29, NUAK2(h) (Homo sapiens, UniProt Q9H093)", "T29 construct": "purchased Eurofins Cerep SA (KinaseProfiler)", "T29 sequence (Q9H093 whole entry)": "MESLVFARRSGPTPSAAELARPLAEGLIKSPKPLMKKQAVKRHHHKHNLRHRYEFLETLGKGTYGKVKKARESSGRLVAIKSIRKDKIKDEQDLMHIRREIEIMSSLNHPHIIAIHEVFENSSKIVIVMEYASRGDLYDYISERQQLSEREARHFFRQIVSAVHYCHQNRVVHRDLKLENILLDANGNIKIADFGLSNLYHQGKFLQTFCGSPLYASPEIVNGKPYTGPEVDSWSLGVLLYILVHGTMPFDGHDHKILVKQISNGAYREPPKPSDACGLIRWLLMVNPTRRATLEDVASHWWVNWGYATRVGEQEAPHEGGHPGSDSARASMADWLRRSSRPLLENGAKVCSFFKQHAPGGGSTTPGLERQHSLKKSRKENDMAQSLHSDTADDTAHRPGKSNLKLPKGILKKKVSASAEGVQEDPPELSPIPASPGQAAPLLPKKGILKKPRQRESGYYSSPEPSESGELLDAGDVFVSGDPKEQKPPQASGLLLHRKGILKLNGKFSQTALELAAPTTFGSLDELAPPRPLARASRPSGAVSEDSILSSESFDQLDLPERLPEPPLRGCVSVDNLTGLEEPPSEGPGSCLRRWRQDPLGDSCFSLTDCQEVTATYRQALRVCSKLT", "protocol": "as §1"}, "MEKK3(h)": {"target": "T30, MEKK3(h) (Homo sapiens, UniProt Q99759)", "T30 construct": "purchased Eurofins Cerep SA (KinaseProfiler)", "T30 sequence (Q99759 whole entry)": "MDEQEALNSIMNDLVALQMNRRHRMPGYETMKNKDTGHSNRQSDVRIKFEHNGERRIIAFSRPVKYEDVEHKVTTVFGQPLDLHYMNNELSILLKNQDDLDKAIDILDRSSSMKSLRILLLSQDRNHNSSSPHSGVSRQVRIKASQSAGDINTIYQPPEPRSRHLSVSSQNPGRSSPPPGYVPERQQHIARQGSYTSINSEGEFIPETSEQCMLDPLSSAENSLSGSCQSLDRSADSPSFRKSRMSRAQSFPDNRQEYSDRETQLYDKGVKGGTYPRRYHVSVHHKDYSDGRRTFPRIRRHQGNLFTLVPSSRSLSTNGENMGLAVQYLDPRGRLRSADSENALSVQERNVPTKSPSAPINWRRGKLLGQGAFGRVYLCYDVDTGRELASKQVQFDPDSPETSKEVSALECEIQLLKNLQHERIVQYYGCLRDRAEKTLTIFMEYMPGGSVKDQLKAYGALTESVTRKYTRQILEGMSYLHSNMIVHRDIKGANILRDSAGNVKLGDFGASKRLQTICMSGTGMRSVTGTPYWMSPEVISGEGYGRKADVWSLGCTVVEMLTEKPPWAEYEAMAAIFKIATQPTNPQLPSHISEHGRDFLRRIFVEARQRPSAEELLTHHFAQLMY", "protocol": "as §1"}, "CDK7/cyclinH/MAT1(h)": {"target": "T31, CDK7/cyclinH/MAT1(h) (Homo sapiens, UniProt P50613)", "T31 construct": "purchased Eurofins Cerep SA (KinaseProfiler)", "protocol": "as §1"}, "PKBγ(h)": {"target": "T32, PKBγ(h) (Homo sapiens, UniProt Q9Y243)", "T32 construct": "purchased Eurofins Cerep SA (KinaseProfiler)", "protocol": "as §1"}, "Mnk2(h)": {"target": "T33, Mnk2(h) (Homo sapiens, UniProt Q9HBH9)", "T33 construct": "purchased Eurofins Cerep SA (KinaseProfiler)", "protocol": "as §1"}, "PKG1α(h)": {"target": "T34, PKG1α(h) (Homo sapiens, UniProt Q13976)", "T34 construct": "purchased Eurofins Cerep SA (KinaseProfiler)", "protocol": "as §1"}, "EphA8(h)": {"target": "T35, EphA8(h) (Homo sapiens, UniProt P29322)", "T35 construct": "purchased Eurofins Cerep SA (KinaseProfiler)", "protocol": "as §1"}, "MELK(h)": {"target": "T36, MELK(h) (Homo sapiens, UniProt Q14680)", "T36 construct": "purchased Eurofins Cerep SA (KinaseProfiler)", "protocol": "as §1"}, "WNK4(h)": {"target": "T37, WNK4(h) (Homo sapiens, UniProt Q96J92)", "T37 construct": "purchased Eurofins Cerep SA (KinaseProfiler)", "protocol": "as §1"}, "CDK14/cyclinY(h)": {"target": "T38, CDK14/cyclinY(h) (Homo sapiens, UniProt O94921)", "T38 construct": "purchased Eurofins Cerep SA (KinaseProfiler)", "protocol": "as §1"}, "CaMKIIβ(h)": {"target": "T39, CaMKIIβ(h) (Homo sapiens, UniProt Q13554)", "T39 construct": "purchased Eurofins Cerep SA (KinaseProfiler)", "protocol": "as §1"}, "PKCη(h)": {"target": "T40, PKCη(h) (Homo sapiens, UniProt P24723)", "T40 construct": "purchased Eurofins Cerep SA (KinaseProfiler)", "protocol": "as §1"}, "GRK5(h)": {"target": "T41, GRK5(h) (Homo sapiens, UniProt P34947)", "T41 construct": "purchased Eurofins Cerep SA (KinaseProfiler)", "protocol": "as §1"}},
  "data": [
    {"smiles": "CN(C)Cc1cccc(Nc2ncc(Cl)c(-c3csc(C(=O)NN4CCOCC4)c3)n2)c1", "note": "[SKLB-D18, 4-(5-chloro-2-((3-((dimethylamino)methyl)phenyl)amino)pyrimidin-4-yl)-N-morpholinothiophene-2-carboxamide]", "values": [
      {"measurement": "inhibition at 1 µM", "setting": "NEK5(h)", "result": 68, "unit": "%"},
      {"measurement": "inhibition at 1 µM", "setting": "Pim-1(h)", "result": 37, "unit": "%"},
      {"measurement": "inhibition at 1 µM", "setting": "DYRK1A(h)", "result": 13, "unit": "%"},
      {"measurement": "inhibition at 1 µM", "setting": "TGFBR1(h)", "result": 20, "unit": "%"},
      {"measurement": "inhibition at 1 µM", "setting": "MARK1(h)", "result": 64, "unit": "%"},
      {"measurement": "inhibition at 1 µM", "setting": "HIPK3(h)", "result": 64, "unit": "%"},
      {"measurement": "inhibition at 1 µM", "setting": "Mer(h)", "result": 69, "unit": "%"},
      {"measurement": "inhibition at 1 µM", "setting": "Fes(h)", "result": 53, "unit": "%"},
      {"measurement": "inhibition at 1 µM", "setting": "BrSK2(h)", "result": 23, "unit": "%"},
      {"measurement": "inhibition at 1 µM", "setting": "Fer(h)", "result": 16, "unit": "%"},
      {"measurement": "inhibition at 1 µM", "setting": "ULK3(h)", "result": 45, "unit": "%"},
      {"measurement": "inhibition at 1 µM", "setting": "Pyk2(h)", "result": 46, "unit": "%"},
      {"measurement": "inhibition at 1 µM", "setting": "PKD3(h)", "result": 55, "unit": "%"},
      {"measurement": "inhibition at 1 µM", "setting": "CK1δ(h)", "result": 16, "unit": "%"},
      {"measurement": "inhibition at 1 µM", "setting": "ZAK(h)", "result": 5, "unit": "%"},
      {"measurement": "inhibition at 1 µM", "setting": "MST3(h)", "result": 19, "unit": "%"},
      {"measurement": "inhibition at 1 µM", "setting": "TTBK2(h)", "result": 0, "unit": "%"},
      {"measurement": "inhibition at 1 µM", "setting": "GAK(h)", "result": 78, "unit": "%"},
      {"measurement": "inhibition at 1 µM", "setting": "CSK(h)", "result": -11, "unit": "%"},
      {"measurement": "inhibition at 1 µM", "setting": "Ros(h)", "result": -4, "unit": "%"},
      {"measurement": "inhibition at 1 µM", "setting": "Pim-2(h)", "result": 26, "unit": "%"},
      {"measurement": "inhibition at 1 µM", "setting": "p70S6K(h)", "result": 57, "unit": "%"},
      {"measurement": "inhibition at 1 µM", "setting": "TTK(h)", "result": 34, "unit": "%"},
      {"measurement": "inhibition at 1 µM", "setting": "MYO3B(h)", "result": 4, "unit": "%"},
      {"measurement": "inhibition at 1 µM", "setting": "EphA5(h)", "result": 3, "unit": "%"},
      {"measurement": "inhibition at 1 µM", "setting": "MST2(h)", "result": 40, "unit": "%"},
      {"measurement": "inhibition at 1 µM", "setting": "MLK2(h)", "result": 59, "unit": "%"},
      {"measurement": "inhibition at 1 µM", "setting": "MuSK(h)", "result": 20, "unit": "%"},
      {"measurement": "inhibition at 1 µM", "setting": "NUAK2(h)", "result": 67, "unit": "%"},
      {"measurement": "inhibition at 1 µM", "setting": "MEKK3(h)", "result": 8, "unit": "%"},
      {"measurement": "inhibition at 1 µM", "setting": "CDK7/cyclinH/MAT1(h)", "result": 57, "unit": "%"},
      {"measurement": "inhibition at 1 µM", "setting": "PKBγ(h)", "result": 14, "unit": "%"},
      {"measurement": "inhibition at 1 µM", "setting": "Mnk2(h)", "result": 59, "unit": "%"},
      {"measurement": "inhibition at 1 µM", "setting": "PKG1α(h)", "result": 9, "unit": "%"},
      {"measurement": "inhibition at 1 µM", "setting": "EphA8(h)", "result": 14, "unit": "%"},
      {"measurement": "inhibition at 1 µM", "setting": "MELK(h)", "result": 62, "unit": "%"},
      {"measurement": "inhibition at 1 µM", "setting": "WNK4(h)", "result": 18, "unit": "%"},
      {"measurement": "inhibition at 1 µM", "setting": "CDK14/cyclinY(h)", "result": 58, "unit": "%"},
      {"measurement": "inhibition at 1 µM", "setting": "CaMKIIβ(h)", "result": 44, "unit": "%"},
      {"measurement": "inhibition at 1 µM", "setting": "PKCη(h)", "result": 16, "unit": "%"},
      {"measurement": "inhibition at 1 µM", "setting": "GRK5(h)", "result": -1, "unit": "%"}
    ]}
  ]
}
